Reference: PubChem BioAssay (NCI)
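Five concentrations, 48 hours, 96-well plates. At the TGI there is no net growth.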

Experiments:
Assay in all cases: NCI anticancer screen, dose series, 48 h
M14 melanoma = test system: M14 melanoma
OVCAR-8 ovarian = test system: OVCAR-8 ovarian
SN12C renal = test system: SN12C renal
SNB-19 CNS = test system: SNB-19 CNS
DMS 273 small cell lung = test system: DMS 273 small cell lung
NCI-H522 lung = test system: NCI-H522 lung
HL-60(TB) leukemia = test system: HL-60(TB) leukemia
IGROV1 ovarian = test system: IGROV1 ovarian
SF-539 CNS = test system: SF-539 CNS
K-562 leukemia = test system: K-562 leukemia
KM12 colon = test system: KM12 colon
SW-620 colon = test system: SW-620 colon
HOP-92 NSCLC = test system: HOP-92 NSCLC
M19-MEL melanoma = test system: M19-MEL melanoma
A549 NSCLC = test system: A549 NSCLC
UO-31 renal = test system: UO-31 renal
LXFL 529 NSCLC = test system: LXFL 529 NSCLC
NCI-H23 lung = test system: NCI-H23 lung
EKVX NSCLC = test system: EKVX NSCLC
RPMI-8226 leukemia = test system: RPMI-8226 leukemia
LOX IMVI melanoma = test system: LOX IMVI melanoma
SK-OV-3 ovarian = test system: SK-OV-3 ovarian
HCT-116 colon = test system: HCT-116 colon
XF 498 CNS = test system: XF 498 CNS
HT29 colon = test system: HT29 colon
SF-268 CNS = test system: SF-268 CNS
UACC-62 melanoma = test system: UACC-62 melanoma
HOP-18 NSCLC = test system: HOP-18 NSCLC
U251 CNS = test system: U251 CNS
DMS 114 small cell lung = test system: DMS 114 small cell lung
A498 renal = test system: A498 renal
786-0 renal = test system: 786-0 renal
ACHN renal = test system: ACHN renal
HCC-2998 colon = test system: HCC-2998 colon
HOP-62 NSCLC = test system: HOP-62 NSCLC
TK-10 renal = test system: TK-10 renal
SNB-78 CNS = test system: SNB-78 CNS
NCI-H226 lung = test system: NCI-H226 lung
OVCAR-3 ovarian = test system: OVCAR-3 ovarian
SK-MEL-28 melanoma = test system: SK-MEL-28 melanoma
SK-MEL-2 melanoma = test system: SK-MEL-2 melanoma
SF-295 CNS = test system: SF-295 CNS
RXF 393 renal = test system: RXF 393 renal
MOLT-4 leukemia = test system: MOLT-4 leukemia
CCRF-CEM leukemia = test system: CCRF-CEM leukemia
MALME-3M melanoma = test system: MALME-3M melanoma
UACC-257 melanoma = test system: UACC-257 melanoma
HCT-15 colon = test system: HCT-15 colon
SNB-75 CNS = test system: SNB-75 CNS
NCI-H460 lung = test system: NCI-H460 lung
OVCAR-4 ovarian = test system: OVCAR-4 ovarian
KM20L2 colon = test system: KM20L2 colon
SR leukemia = test system: SR leukemia
COLO 205 colon = test system: COLO 205 colon
DLD-1 colon = test system: DLD-1 colon
CAKI-1 renal = test system: CAKI-1 renal
SK-MEL-5 melanoma = test system: SK-MEL-5 melanoma
OVCAR-5 ovarian = test system: OVCAR-5 ovarian

Measured: TGI

CN1C(=O)N(C)C(N2CCCC2)c2c1nc1ccccn1c2=O (stereo not drawn)
not listed: CAKI-1 renal | SK-MEL-5 melanoma | OVCAR-5 ovarian
> 100 µM: all other assays above

COCCCCCC(=O)CP(=O)(OC)OC
> 100 µM: all assays above
